This is an account of results in patent publication US10221197B2, “Phosphatidylinositol 3-kinase inhibitors” (Gilead Sciences, Inc., priority 2014, dated 2019).

Holding throughout (format): biochemical
The target in one test is PI3Kγ (Homo sapiens (Human), UniProt P48736). Briefly: TR-FRET enzymatic assay of PI3K isoforms (PI3Kγ). To be noted: read-out: γ IC50. On the procedure:
(§1) The compounds of formula (I) were characterized for their enzymatic activity against the PI3K isoforms. Certain compounds of the present application, including certain compounds of formula (II) and (III) were also characterized for their enzymatic activity against PI3K isoforms. The activities were measured using a time-resolved fluorescence resonance energy transfer (TR-FRET) assay.

Another test has as its target PI3Kδ (Homo sapiens (Human), UniProt O00329). The test is described as follows: TR-FRET enzymatic assay of PI3K isoforms (PI3Kδ). To be noted: 2×Km ATP, 2 μM PIP2, incubated for 30 minutes at 25° C., read-out: δ IC50. On the procedure:
as §1
(In general: Time-resolved FRET reads energy transfer from a long-lived donor to a nearby acceptor.)

In the next test the target is PI3Kβ (Homo sapiens (Human), UniProt P42338). Briefly: TR-FRET enzymatic assay of PI3K isoforms (PI3Kβ). To be noted: TR-FRET, 2×Km ATP, 2 μM PIP2, incubated for 30 minutes at 25° C.; read-out: β IC50. On the procedure:
as §1

The mark [1] stands for this setting: TR-FRET, 2×Km ATP, 2 μM PIP2, PI3Kγ at 2 nM, incubated for 30 minutes at 25° C.

pIC50: −log10 of the molar value. Where two headings read alike, the source gives them in different places. Where only a bound is given, the exact number is not on record here.

Sequence of PI3Kγ (P48736 whole entry, canonical isoform): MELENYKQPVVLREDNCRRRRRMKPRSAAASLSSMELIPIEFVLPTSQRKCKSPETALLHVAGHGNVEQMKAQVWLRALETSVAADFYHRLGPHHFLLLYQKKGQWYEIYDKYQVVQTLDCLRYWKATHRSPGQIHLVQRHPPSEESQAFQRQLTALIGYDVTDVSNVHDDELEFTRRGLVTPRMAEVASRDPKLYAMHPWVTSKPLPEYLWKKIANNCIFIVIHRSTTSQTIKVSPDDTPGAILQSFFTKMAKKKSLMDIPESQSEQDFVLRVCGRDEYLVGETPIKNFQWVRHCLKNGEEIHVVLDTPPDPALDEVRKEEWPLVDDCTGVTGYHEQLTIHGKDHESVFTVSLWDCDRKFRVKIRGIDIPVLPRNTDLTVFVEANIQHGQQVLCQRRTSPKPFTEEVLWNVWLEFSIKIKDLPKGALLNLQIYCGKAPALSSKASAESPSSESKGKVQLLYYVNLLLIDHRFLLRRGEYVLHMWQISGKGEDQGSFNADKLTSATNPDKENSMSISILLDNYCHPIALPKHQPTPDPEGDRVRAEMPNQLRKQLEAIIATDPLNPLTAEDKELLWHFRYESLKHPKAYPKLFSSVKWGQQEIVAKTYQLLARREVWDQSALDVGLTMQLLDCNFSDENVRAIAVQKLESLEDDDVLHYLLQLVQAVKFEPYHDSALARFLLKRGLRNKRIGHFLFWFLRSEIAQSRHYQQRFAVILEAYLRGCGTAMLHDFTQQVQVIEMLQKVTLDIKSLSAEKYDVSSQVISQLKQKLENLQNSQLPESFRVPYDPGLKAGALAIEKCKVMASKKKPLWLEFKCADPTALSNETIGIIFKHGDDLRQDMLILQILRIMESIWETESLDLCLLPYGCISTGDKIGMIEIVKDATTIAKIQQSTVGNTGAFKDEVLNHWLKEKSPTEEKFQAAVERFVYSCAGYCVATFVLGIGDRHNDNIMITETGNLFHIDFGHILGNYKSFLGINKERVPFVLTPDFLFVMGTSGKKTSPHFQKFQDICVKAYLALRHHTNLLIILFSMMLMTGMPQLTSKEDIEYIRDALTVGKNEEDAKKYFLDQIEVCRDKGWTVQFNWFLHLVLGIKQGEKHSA
Sequence of PI3Kγ (Q8WYR1 whole entry partner, canonical isoform): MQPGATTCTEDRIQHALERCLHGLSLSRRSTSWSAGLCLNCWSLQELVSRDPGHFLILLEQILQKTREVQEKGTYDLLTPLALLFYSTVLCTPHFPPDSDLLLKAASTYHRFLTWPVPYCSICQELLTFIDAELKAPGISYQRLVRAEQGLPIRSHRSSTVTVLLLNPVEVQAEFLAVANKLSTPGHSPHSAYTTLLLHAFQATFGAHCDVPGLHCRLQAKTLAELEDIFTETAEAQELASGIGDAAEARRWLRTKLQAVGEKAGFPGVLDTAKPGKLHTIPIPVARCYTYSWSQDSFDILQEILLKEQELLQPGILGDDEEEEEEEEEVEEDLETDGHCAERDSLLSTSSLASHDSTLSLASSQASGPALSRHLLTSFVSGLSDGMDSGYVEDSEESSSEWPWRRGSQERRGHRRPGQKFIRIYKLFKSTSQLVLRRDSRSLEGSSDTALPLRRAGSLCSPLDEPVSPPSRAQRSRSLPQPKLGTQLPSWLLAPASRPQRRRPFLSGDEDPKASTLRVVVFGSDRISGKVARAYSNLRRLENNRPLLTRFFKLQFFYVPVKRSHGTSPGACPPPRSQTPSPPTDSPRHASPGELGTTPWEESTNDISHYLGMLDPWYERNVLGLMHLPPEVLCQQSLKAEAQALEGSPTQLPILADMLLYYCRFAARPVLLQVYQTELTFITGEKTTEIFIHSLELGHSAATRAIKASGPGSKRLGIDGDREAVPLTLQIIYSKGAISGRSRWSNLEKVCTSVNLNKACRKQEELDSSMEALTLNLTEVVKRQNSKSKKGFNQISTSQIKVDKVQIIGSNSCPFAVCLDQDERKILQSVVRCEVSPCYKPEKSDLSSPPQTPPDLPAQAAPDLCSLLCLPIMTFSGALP
Sequence of PI3Kβ (P42338 whole entry, canonical isoform): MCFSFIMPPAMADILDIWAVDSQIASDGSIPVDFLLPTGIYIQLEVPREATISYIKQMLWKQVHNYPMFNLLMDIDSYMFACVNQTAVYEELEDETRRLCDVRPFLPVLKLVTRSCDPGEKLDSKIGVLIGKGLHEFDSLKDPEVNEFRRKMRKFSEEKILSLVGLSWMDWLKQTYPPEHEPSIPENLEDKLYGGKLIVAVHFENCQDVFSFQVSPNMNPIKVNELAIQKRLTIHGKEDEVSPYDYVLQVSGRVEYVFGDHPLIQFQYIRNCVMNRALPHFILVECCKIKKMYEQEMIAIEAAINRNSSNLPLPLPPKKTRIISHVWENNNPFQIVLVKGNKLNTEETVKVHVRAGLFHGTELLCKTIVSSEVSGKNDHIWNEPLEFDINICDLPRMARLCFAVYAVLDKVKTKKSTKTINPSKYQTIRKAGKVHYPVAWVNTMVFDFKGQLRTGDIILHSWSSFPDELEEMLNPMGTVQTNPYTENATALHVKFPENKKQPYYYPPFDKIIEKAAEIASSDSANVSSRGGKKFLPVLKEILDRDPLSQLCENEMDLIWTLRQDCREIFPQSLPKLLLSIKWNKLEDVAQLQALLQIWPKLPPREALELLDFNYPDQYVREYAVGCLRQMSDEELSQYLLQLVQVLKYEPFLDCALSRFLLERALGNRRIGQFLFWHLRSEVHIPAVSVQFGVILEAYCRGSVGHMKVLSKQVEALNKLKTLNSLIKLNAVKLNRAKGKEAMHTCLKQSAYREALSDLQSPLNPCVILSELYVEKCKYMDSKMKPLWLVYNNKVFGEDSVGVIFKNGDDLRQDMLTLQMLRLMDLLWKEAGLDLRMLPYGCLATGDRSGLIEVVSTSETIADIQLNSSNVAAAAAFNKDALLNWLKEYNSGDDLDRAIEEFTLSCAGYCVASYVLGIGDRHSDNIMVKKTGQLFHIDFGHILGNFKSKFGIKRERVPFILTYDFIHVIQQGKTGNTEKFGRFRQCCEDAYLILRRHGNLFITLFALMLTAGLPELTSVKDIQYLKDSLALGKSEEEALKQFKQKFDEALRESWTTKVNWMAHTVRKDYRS
Sequence of PI3Kβ (P27986 whole entry partner, canonical isoform): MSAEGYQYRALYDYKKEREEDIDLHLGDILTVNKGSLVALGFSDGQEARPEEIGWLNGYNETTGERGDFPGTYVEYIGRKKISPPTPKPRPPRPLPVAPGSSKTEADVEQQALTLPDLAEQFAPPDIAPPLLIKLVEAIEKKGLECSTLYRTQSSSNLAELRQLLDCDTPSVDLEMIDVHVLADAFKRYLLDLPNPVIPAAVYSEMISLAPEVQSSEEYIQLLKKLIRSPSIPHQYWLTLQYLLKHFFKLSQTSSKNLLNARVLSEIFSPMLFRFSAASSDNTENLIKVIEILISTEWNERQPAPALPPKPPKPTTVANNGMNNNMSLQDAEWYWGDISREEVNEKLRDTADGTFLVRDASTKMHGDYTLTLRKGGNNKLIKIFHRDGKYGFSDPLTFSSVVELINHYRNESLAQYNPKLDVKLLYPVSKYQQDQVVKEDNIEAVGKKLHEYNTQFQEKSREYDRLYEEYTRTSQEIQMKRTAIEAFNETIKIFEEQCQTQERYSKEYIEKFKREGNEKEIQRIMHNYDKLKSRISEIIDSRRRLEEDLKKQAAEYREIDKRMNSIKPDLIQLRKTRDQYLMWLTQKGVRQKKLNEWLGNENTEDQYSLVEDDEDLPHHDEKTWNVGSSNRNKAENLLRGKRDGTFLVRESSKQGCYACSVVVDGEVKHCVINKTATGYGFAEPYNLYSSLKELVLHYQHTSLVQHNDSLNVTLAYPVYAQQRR
Sequence of PI3Kδ (O00329 whole entry, canonical isoform): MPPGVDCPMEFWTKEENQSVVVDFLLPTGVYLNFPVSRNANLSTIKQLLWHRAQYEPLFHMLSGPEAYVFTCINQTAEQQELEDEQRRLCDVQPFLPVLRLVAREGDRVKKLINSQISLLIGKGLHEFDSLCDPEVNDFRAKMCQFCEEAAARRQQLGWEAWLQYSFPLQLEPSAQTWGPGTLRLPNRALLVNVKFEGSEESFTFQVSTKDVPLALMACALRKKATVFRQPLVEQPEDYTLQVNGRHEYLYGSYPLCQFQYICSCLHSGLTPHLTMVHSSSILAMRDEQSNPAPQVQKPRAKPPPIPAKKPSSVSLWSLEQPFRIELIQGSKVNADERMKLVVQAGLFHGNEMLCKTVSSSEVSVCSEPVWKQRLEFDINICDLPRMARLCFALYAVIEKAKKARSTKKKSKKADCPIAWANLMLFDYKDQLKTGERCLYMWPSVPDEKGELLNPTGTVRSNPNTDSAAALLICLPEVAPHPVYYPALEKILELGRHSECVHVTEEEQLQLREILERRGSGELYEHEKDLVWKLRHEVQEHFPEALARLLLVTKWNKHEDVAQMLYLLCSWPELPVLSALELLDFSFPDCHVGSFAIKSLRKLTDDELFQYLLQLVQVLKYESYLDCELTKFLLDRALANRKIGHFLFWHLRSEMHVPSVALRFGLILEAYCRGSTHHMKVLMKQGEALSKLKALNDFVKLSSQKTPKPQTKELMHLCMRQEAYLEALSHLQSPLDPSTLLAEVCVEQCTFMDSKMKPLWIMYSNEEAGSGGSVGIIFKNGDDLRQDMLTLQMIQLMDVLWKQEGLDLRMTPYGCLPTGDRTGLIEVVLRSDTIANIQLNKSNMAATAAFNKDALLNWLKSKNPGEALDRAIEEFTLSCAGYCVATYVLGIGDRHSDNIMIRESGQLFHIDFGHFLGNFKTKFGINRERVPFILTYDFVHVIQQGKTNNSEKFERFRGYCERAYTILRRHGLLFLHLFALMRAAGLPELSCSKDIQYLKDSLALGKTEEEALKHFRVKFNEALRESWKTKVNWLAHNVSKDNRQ
Sequence of PI3Kδ (P27986 whole entry partner, canonical isoform): as the sequence (P27986 whole entry partner, canonical isoform) above

Broadly, the pIC50 is the IC50 on a negative log10 scale, so that one unit is a factor of ten. For `C[C@H](Nc1ncnc(N)c1C#N)c1nc2cccc(Cl)c2c(=O)n1-c1cccc(NC(=O)NS(=O)(=O)C2CC2)c1` [Compound 81, (S)—N-((3-(2-(1-((6-amino-5-cyanopyrimidin-4-yl)amino)ethyl)-5-chloro-4-oxoquinazolin-3(4H)-yl)phenyl)carbamoyl)cyclopropanesulfonamide], the pIC50 is 5.55 at PI3Kγ (setting [1]), 8.70 on PI3Kδ and 6.46 on PI3Kβ.
For the molecule `N#Cc1c(N)ncnc1N1CCC[C@H]1c1nc2cccc(Cl)c2c(=O)n1-c1cccc(NC(=O)NCC2OCCO2)c1` [Compound 82, (S)-1-((1,3-dioxolan-2-yl)methyl)-3-(3-(2-(1-(6-amino-5-cyanopyrimidin-4-yl)pyrrolidin-2-yl)-5-chloro-4-oxoquinazolin-3(4H)-yl)phenyl)urea], the pIC50 at PI3Kγ (setting [1]) is 5.07; at PI3Kδ, 7.80; at PI3Kβ, 7.54.
As for `CCNC(=O)Nc1cccc(-n2c([C@@H]3CCCN3c3ncnc(N)c3C#N)nc3cccc(Cl)c3c2=O)c1` [Compound 83, (S)-1-(3-(2-(1-(6-amino-5-cyanopyrimidin-4-yl)pyrrolidin-2-yl)-5-chloro-4-oxoquinazolin-3(4H)-yl)phenyl)-3-ethylurea], the figures for the pIC50 at PI3Kγ (setting [1]), on PI3Kδ and at PI3Kβ were 5.48, 8.05 and 7.89, respectively.
`C[C@H](Nc1ncnc2[nH]cnc12)c1nc2cccc(Cl)c2c(=O)n1-c1cccc(NC(N)=O)c1` [Compound 86, (S)-1-(3-(2-(1-((9H-purin-6-yl)amino)ethyl)-5-chloro-4-oxoquinazolin-3(4H)-yl)phenyl)urea]: the pIC50 was 5.37 on PI3Kγ (setting [1]), 7.72 on PI3Kδ and 7.66 on PI3Kβ.
For `CNC(=O)Nc1cccc(-n2c([C@H](C)Nc3ncnc4[nH]cnc34)nc3cccc(Cl)c3c2=O)c1` [Compound 87, (S)-1-(3-(2-(1-((9H-purin-6-yl)amino)ethyl)-5-chloro-4-oxoquinazolin-3(4H)-yl)phenyl)-3-methylurea], the pIC50 on PI3Kγ (setting [1]) is 5.35; at PI3Kδ, 7.48; at PI3Kβ, 7.68.
For the molecule `C[C@H](Nc1ncnc(N)c1C#N)c1nc2cccc(Cl)c2c(=O)n1-c1cccc(NC(N)=O)c1` [Compound 88, (S)-1-(3-(2-(1-((6-amino-5-cyanopyrimidin-4-yl)amino)ethyl)-5-chloro-4-oxoquinazolin-3(4H)-yl)phenyl)urea], the pIC50 on PI3Kγ (setting [1]) was 5.57; on PI3Kδ, 8.70; at PI3Kβ, 8.40.
On to `CNC(=O)Nc1cccc(-n2c([C@H](C)Nc3ncnc(N)c3C#N)nc3cccc(Cl)c3c2=O)c1` [Compound 89, (S)-1-(3-(2-(1-((6-amino-5-cyanopyrimidin-4-yl)amino)ethyl)-5-chloro-4-oxoquinazolin-3(4H)-yl)phenyl)-3-methylurea], for which the pIC50 is 5.37 at PI3Kγ (setting [1]), 8.22 at PI3Kδ and 8.22 on PI3Kβ.
Regarding `CCNC(=O)Nc1cccc(-n2c([C@H](C)Nc3ncnc4[nH]cnc34)nc3cccc(Cl)c3c2=O)c1` [Compound 91, (S)-1-(3-(2-(1-((9H-purin-6-yl)amino)ethyl)-5-chloro-4-oxoquinazolin-3(4H)-yl)phenyl)-3-ethylurea], the pIC50 on PI3Kγ (setting [1]) is 5.85; on PI3Kδ it was 7.72; on PI3Kβ, 7.49.
`CCNC(=O)Nc1cccc(-n2c([C@H](C)Nc3ncnc(N)c3C#Cc3ccccn3)nc3cccc(Cl)c3c2=O)c1` [Compound 92]: the pIC50 is 5.80 at PI3Kγ (setting [1]), 9.00 on PI3Kδ and 7.80 at PI3Kβ.
On to `CCNC(=O)Nc1cccc(-n2c([C@H](C)Nc3nc(C)nc(N)n3)nc3cccc(Cl)c3c2=O)c1` [Compound 93, (S)-1-(3-(2-(1-((4-amino-6-methyl-1,3,5-triazin-2-yl)amino)ethyl)-5-chloro-4-oxoquinazolin-3(4H)-yl)phenyl)-3-ethylurea], for which the figures for the pIC50 on PI3Kγ (setting [1]), on PI3Kδ and at PI3Kβ were 5.43, 6.96 and 7.15, respectively.
In the same order, the values of `C[C@H](Nc1ncnc(N)c1C#N)c1nc2cccc(Cl)c2c(=O)n1-c1cccc(NC(=O)Nc2ccccc2C(=O)O)c1` [Compound 96, (S)-2-(3-(3-(2-(1-((6-amino-5-cyanopyrimidin-4-yl)amino)ethyl)-5-chloro-4-oxoquinazolin-3(4H)-yl)phenyl)ureido)benzoic acid] are 5.59, 8.30 and 6.64.
For `C[C@H](Nc1ncnc(N)c1C#N)c1nc2cccc(Cl)c2c(=O)n1-c1cccc(NC(=O)Nc2ccccc2S(=O)(=O)O)c1` [Compound 97, (S)-2-(3-(3-(2-(1-((6-amino-5-cyanopyrimidin-4-yl)amino)ethyl)-5-chloro-4-oxoquinazolin-3(4H)-yl)phenyl)ureido)benzenesulfonic acid] the same measures were 5.22, 8.30 and 6.92.
As to `C[C@H](Nc1ncnc(N)c1C#N)c1nc2cccc(Cl)c2c(=O)n1-c1cccc(NC(=O)Nc2ccccc2OCC(=O)O)c1` [Compound 98, (S)-2-(2-(3-(3-(2-(1-((6-amino-5-cyanopyrimidin-4-yl)amino)ethyl)-5-chloro-4-oxoquinazolin-3(4H)-yl)phenyl)ureido)phenoxy)acetic acid], the results for the pIC50 at PI3Kγ (setting [1]), on PI3Kδ and at PI3Kβ were 5.48, 7.54 and 7.24, respectively.
In the same order, the values of `C[C@H](Nc1ncnc(N)c1C#N)c1nc2cccc(Cl)c2c(=O)n1-c1cccc(NC(=O)Nc2ccc(Cl)c(C(F)(F)F)c2)c1` [Compound 99, (S)-1-(3-(2-(1-((6-amino-5-cyanopyrimidin-4-yl)amino)ethyl)-5-chloro-4-oxoquinazolin-3(4H)-yl)phenyl)-3-(4-chloro-3-(trifluoromethyl)phenyl)urea] are 5.80, 7.72 and 8.10.
For the molecule `C[C@H](Nc1ncnc(N)c1C#N)c1nc2cccc(Cl)c2c(=O)n1-c1cccc(NC(=O)Nc2ccccc2Cl)c1` [Compound 100, (S)-1-(3-(2-(1-((6-amino-5-cyanopyrimidin-4-yl)amino)ethyl)-5-chloro-4-oxoquinazolin-3(4H)-yl)phenyl)-3-(2-chlorophenyl)urea], the pIC50 is 5.85 on PI3Kγ (setting [1]), 8.52 on PI3Kδ and 9.00 at PI3Kβ.
For `C[C@H](Nc1ncnc(N)c1C#N)c1nc2cccc(Cl)c2c(=O)n1-c1cccc(NC(=O)Nc2ccccc2C(F)(F)F)c1` [Compound 101, (S)-1-(3-(2-(1-((6-amino-5-cyanopyrimidin-4-yl)amino)ethyl)-5-chloro-4-oxoquinazolin-3(4H)-yl)phenyl)-3-(2-(trifluoromethyl)phenyl)urea], the values for the pIC50 at PI3Kγ (setting [1]), on PI3Kδ and on PI3Kβ were 5.60, 7.89 and 8.30, respectively.
On to `C[C@H](Nc1ncnc2[nH]cnc12)c1nc2cccc(Cl)c2c(=O)n1-c1cccc(NC(=O)Nc2ccccc2C(F)(F)F)c1` [Compound 102, (S)-1-(3-(2-(1-((9H-purin-6-yl)amino)ethyl)-5-chloro-4-oxoquinazolin-3(4H)-yl)phenyl)-3-(2-(trifluoromethyl)phenyl)urea], for which the pIC50 is 6.17 at PI3Kγ (setting [1]), 7.51 on PI3Kδ and 8.15 on PI3Kβ.
In the case of `C[C@H](Nc1ncnc2[nH]cnc12)c1nc2cccc(Cl)c2c(=O)n1-c1cccc(NC(=O)Nc2c(Cl)cccc2Cl)c1` [Compound 104, (S)-1-(3-(2-(1-((9H-purin-6-yl)amino)ethyl)-5-chloro-4-oxoquinazolin-3(4H)-yl)phenyl)-3-(2,6-dichlorophenyl)urea], the pIC50 was 6.13 at PI3Kγ (setting [1]), 7.52 on PI3Kδ and 8.10 on PI3Kβ.
As for `C[C@H](Nc1ncnc(N)c1C#N)c1nc2cccc(Cl)c2c(=O)n1-c1cccc(NC(=O)Nc2ccccc2C#N)c1` [Compound 106, (S)-1-(3-(2-(1-((6-amino-5-cyanopyrimidin-4-yl)amino)ethyl)-5-chloro-4-oxoquinazolin-3(4H)-yl)phenyl)-3-(2-cyanophenyl)urea], the pIC50 was below 5.00 at PI3Kγ, 7.70 at PI3Kδ and 5.32 at PI3Kβ.
Regarding `Cc1ccccc1NC(=O)Nc1cccc(-n2c([C@H](C)Nc3ncnc(N)c3C#N)nc3cccc(Cl)c3c2=O)c1` [Compound 107, (S)-1-(3-(2-(1-((6-amino-5-cyanopyrimidin-4-yl)amino)ethyl)-5-chloro-4-oxoquinazolin-3(4H)-yl)phenyl)-3-(o-tolyl)urea], the pIC50 was 5.82 at PI3Kγ (setting [1]), 8.22 on PI3Kδ and 7.80 on PI3Kβ.
On to `C[C@H](Nc1ncnc(N)c1C#N)c1nc2cccc(F)c2c(=O)n1-c1cccc(NC(=O)Nc2ccccc2Cl)c1` [Compound 108, (S)-1-(3-(2-(1-((6-amino-5-cyanopyrimidin-4-yl)amino)ethyl)-5-fluoro-4-oxoquinazolin-3(4H)-yl)phenyl)-3-(2-chlorophenyl)urea], for which the pIC50 is 5.07 at PI3Kγ (setting [1]), 7.62 at PI3Kδ and 8.52 on PI3Kβ.
In the same order, the values of `COc1ccccc1NC(=O)Nc1cccc(-n2c([C@H](C)Nc3ncnc(N)c3C#N)nc3cccc(Cl)c3c2=O)c1` [Compound 109, (S)-1-(3-(2-(1-((6-amino-5-cyanopyrimidin-4-yl)amino)ethyl)-5-chloro-4-oxoquinazolin-3(4H)-yl)phenyl)-3-(2-methoxyphenyl)urea] are 5.59, 8.70 and 8.05.
